Drawing on PubChem BioAssay (NCI), this text covers TGI for eight molecules.

Some test systems named below: SK-OV-3 ovarian; HT29 colon; T-47D breast; NCI-H522 lung; SK-MEL-5 melanoma; PC-3 prostate; U251 CNS; UACC-62 melanoma; NCI-H226 lung; TK-10 renal; HOP-62 NSCLC; MDA-MB-231 breast; SNB-19 CNS; CCRF-CEM leukemia; 786-0 renal; SN12C renal; BT-549 breast; SR leukemia; K-562 leukemia; MDA-N.
Experiment in all cases: NCI tumour cell line growth inhibition, 48 h

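In this assay, cells in 96-well plates receive the compound at five concentrations for 48 hours. Endpoints are linearly interpolated between the surrounding concentrations. Definition used: TGI = concentration required for complete inhibition of growth.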

Regarding `Nc1nc(Cl)c2ncn(Cc3ccc(CCl)cc3)c2n1`, the TGI is 31.1 µM in the assay on SK-OV-3 ovarian; 27.6 µM with HT29 colon; 40.1 µM with T-47D breast; 25.9 µM with NCI-H522 lung; 31 µM in the assay on SK-MEL-5 melanoma; 25 µM in the assay with PC-3 prostate. Besides, the TGI was 12 µM with U251 CNS; 8.18 µM in the assay with UACC-62 melanoma; 37.1 µM in the assay on NCI-H226 lung; 40.5 µM in the assay with TK-10 renal; 27.3 µM with HOP-62 NSCLC; 34.6 µM in the assay with MDA-MB-231 breast. The TGI with SNB-19 CNS is 20 µM; with CCRF-CEM leukemia, > 100 µM; in the assay with 786-0 renal it was 93.9 µM; in the assay with SN12C renal, 27.1 µM; in the assay with BT-549 breast it was 24.5 µM; in the assay on SR leukemia, 9.37 µM. For the same molecule, the TGI with K-562 leukemia was > 100 µM.
For `Cc1ccc2ccccc2c1NC1=NCCO1`, the TGI with SK-OV-3 ovarian, in the assay with HT29 colon, in the assay with T-47D breast, with SK-MEL-5 melanoma, in the assay with U251 CNS and with UACC-62 melanoma was > 100 µM throughout. Further, the TGI in the assay with NCI-H226 lung is 74.5 µM; in the assay on TK-10 renal it was > 100 µM; in the assay with HOP-62 NSCLC, > 100 µM; in the assay on MDA-MB-231 breast, > 100 µM; in the assay with SNB-19 CNS it was > 100 µM; in the assay with CCRF-CEM leukemia it was > 100 µM. The TGI with 786-0 renal, with SN12C renal, in the assay on SR leukemia and with K-562 leukemia was > 100 µM in each case.
As to `CS/C1=C(\c2ccc(C)cc2)N(c2ccccc2)C(=O)C(=O)N(c2ccccc2)/C(c2ccc(C)cc2)=C(/SC)SS1`, the TGI with HT29 colon, in the assay on T-47D breast, with NCI-H522 lung, with PC-3 prostate, in the assay with U251 CNS and in the assay on UACC-62 melanoma was > 100 µM in each case. For the same molecule, the TGI in the assay with TK-10 renal, with HOP-62 NSCLC, in the assay with MDA-MB-231 breast, in the assay on SNB-19 CNS, with CCRF-CEM leukemia and in the assay on 786-0 renal was > 100 µM throughout. In addition, the TGI with SN12C renal, in the assay with MDA-N, in the assay with SR leukemia and in the assay with K-562 leukemia was > 100 µM throughout.
As for `COc1cc(C)c(/C=C/C(=O)N2C(=O)OC[C@@H]2c2ccccc2)c(C)c1`, the TGI was > 100 µM in the assay with SK-OV-3 ovarian; 63.2 µM in the assay on HT29 colon; 74.1 µM with T-47D breast; > 100 µM in the assay on NCI-H522 lung; > 100 µM in the assay on SK-MEL-5 melanoma; > 100 µM with PC-3 prostate. In addition, the TGI with U251 CNS, in the assay with NCI-H226 lung, with TK-10 renal, with HOP-62 NSCLC, in the assay with MDA-MB-231 breast and in the assay on SNB-19 CNS was > 100 µM throughout. Also, the TGI in the assay with CCRF-CEM leukemia, in the assay on 786-0 renal, with SN12C renal, with MDA-N and in the assay on K-562 leukemia was > 100 µM throughout.
Take `O=C(NC(CS)C(=O)O)c1cccc2c(=O)c3ccccc3[nH]c12` (centres undefined): the TGI with SK-OV-3 ovarian, in the assay on HT29 colon, with NCI-H522 lung, in the assay with SK-MEL-5 melanoma, in the assay on PC-3 prostate and in the assay on U251 CNS was > 100 µM each time. For the same molecule, the TGI with UACC-62 melanoma, in the assay with NCI-H226 lung, with TK-10 renal, with HOP-62 NSCLC, in the assay with MDA-MB-231 breast and with SNB-19 CNS was > 100 µM throughout. Also, the TGI with 786-0 renal, with SN12C renal, with MDA-N, in the assay with SR leukemia and in the assay with K-562 leukemia was > 100 µM throughout.
Turning to `O/C(=C\c1nc2ccccc2nc1/C=C(\O)c1ccc(Cl)cc1)c1ccccc1`, the TGI in the assay on SK-OV-3 ovarian, in the assay with T-47D breast, in the assay on NCI-H522 lung, in the assay on SK-MEL-5 melanoma, in the assay on PC-3 prostate and with U251 CNS was > 100 µM in each case. For the same molecule, the TGI in the assay on UACC-62 melanoma, in the assay on NCI-H226 lung, with TK-10 renal, with HOP-62 NSCLC, with MDA-MB-231 breast and in the assay with SNB-19 CNS was > 100 µM each time. Besides, the TGI with CCRF-CEM leukemia, with 786-0 renal, in the assay on SN12C renal, in the assay on BT-549 breast, with SR leukemia and in the assay on K-562 leukemia was > 100 µM throughout.
As for `CNC(=O)c1n[nH]nc1Sc1c([N+](=O)[O-])ncn1C`, the TGI in the assay on SK-OV-3 ovarian, in the assay on HT29 colon, in the assay on T-47D breast, in the assay on NCI-H522 lung, in the assay with SK-MEL-5 melanoma and in the assay on PC-3 prostate was > 100 µM in each case. Besides, the TGI in the assay with U251 CNS, in the assay with UACC-62 melanoma, in the assay on TK-10 renal, with HOP-62 NSCLC, with MDA-MB-231 breast and in the assay with SNB-19 CNS was > 100 µM each time. Besides, the TGI with CCRF-CEM leukemia, in the assay with 786-0 renal, in the assay with SN12C renal, in the assay with BT-549 breast and with K-562 leukemia was > 100 µM each time.
For `CCCCCCCCCc1cc(-c2ccc(C=O)s2)sc1-c1ccc(C=O)s1`, the TGI with SK-OV-3 ovarian was 67.2 µM; in the assay on HT29 colon it was > 100 µM; in the assay with T-47D breast it was > 85.6 µM; in the assay on NCI-H522 lung, 45.6 µM; with SK-MEL-5 melanoma, 34.6 µM; in the assay with PC-3 prostate, > 100 µM. Besides, the TGI with U251 CNS is 29 µM; in the assay on UACC-62 melanoma, 23.7 µM; with NCI-H226 lung it was 9.94 µM; in the assay with TK-10 renal, 34.7 µM; with HOP-62 NSCLC it was 74.8 µM; in the assay on MDA-MB-231 breast, > 77.9 µM. For the same molecule, the TGI was > 87.1 µM in the assay on SNB-19 CNS; 8.51 µM with CCRF-CEM leukemia; > 85.2 µM with 786-0 renal; > 84 µM with SN12C renal; > 93.6 µM in the assay with BT-549 breast; 26.9 µM with SR leukemia. Also, the TGI in the assay on K-562 leukemia is > 38 µM.
